Reference: patent US20250283871A1, “COMPOSITIONS AND METHODS FOR MODULATING THE INTERACTION BETWEEN SS18-SSX FUSION ONCOPROTEIN AND NUCLEOSOMES” (Dana-Farber Cancer Institute, Inc., priority 2020, published 2025)

Key:
histone proteins = assay: Purification of mSWI/SNF (BAF) complexes from NE and CHR fractions, colloidal blue staining; set-up: species or system human
Procedure: Stable HEK293T cell lines expressing by lentiviral infection HA-SS18 WT or HA-SS18-SSX1 were grown in 150 mm dishes. Complexes were purified using methods previously described with a few modifications (Mashtalir et al. (2014) Mol. Cell 54:392-406). Confluent plates were scraped to remove cells and cells were washed with PBS. Cell suspension was spun down by centrifugation at 3000 rpm for 5 minutes at 4° C. and pellets were resuspended in hypotonic buffer (10 mM Tris HCl pH 7.5, 10 mM KCl, 1.5 mM MgCL2, 1 mM DTT, 1 mM PMSF) and incubated on ice for 5 minutes. Following incubation, cell suspension was spun down by centrifugation at 5000 rpm for 5 minutes at 4° C., and pellets were resuspended in 5× volume of fresh hypotonic buffer (with protease inhibitor cocktail, Roche C756U27) and then cells were homogenized using a Dounce homogenizer (glass). Cell suspension was layered onto hypotonic buffer sucrose cushion made with 30% sucrose w/v, spun down by centrifugation at 5000 rpm for 1 hour at 4° C. followed by removal of the cytosol-containing layer. The nuclei containing pellets were resuspended in high salt buffer (50 mM Tris HCl pH 7.5, 300 mM KCl, 1 mM MgCL2, 1 mM EDTA, 1 mM, 1% NP40, 1 mM DTT, 1 mM PMSF and protease inhibitor cocktail) and then the homogenate rotated for 1 hour at 4° C. […]

[1] = system: BAF complex subunits and histone proteins; assay: Mass spectrometry proteomics of purified HA-SS18 WT and HA-SS18-SSX1 complexes (Tables 5A-5E); set-up: species or system human; conditions: MS of HA purifications
Procedure: Confluent plates were scraped to remove cells and cells were washed with PBS. Cell suspension was spun down by centrifugation at 3000 rpm for 5 minutes at 4° C. and pellets were resuspended in hypotonic buffer (10 mM Tris HCl pH 7.5, 10 mM KCl, 1.5 mM MgCL2, 1 mM DTT, 1 mM PMSF) and incubated on ice for 5 minutes. Following incubation, cell suspension was spun down by centrifugation at 5000 rpm for 5 minutes at 4° C., and pellets were resuspended in 5× volume of fresh hypotonic buffer (with protease inhibitor cocktail, Roche C756U27) and then cells were homogenized using a Dounce homogenizer (glass). Cell suspension was layered onto hypotonic buffer sucrose cushion made with 30% sucrose w/v, spun down by centrifugation at 5000 rpm for 1 hour at 4° C. followed by removal of the cytosol-containing layer. The nuclei containing pellets were resuspended in high salt buffer (50 mM Tris HCl pH 7.5, 300 mM KCl, 1 mM MgCL2, 1 mM EDTA, 1 mM, 1% NP40, 1 mM DTT, 1 mM PMSF and protease inhibitor cocktail) and then the homogenate rotated for 1 hour at 4° C. Homogenates were then spun down by centrifugation at 20,000 rpm for 1 hour at 4° C. in a SW32Ti rotor (Beckman Coulter). The soluble proteins, consisting of the nuclear extract (NE) fraction, was separated from the insoluble chromatin pellet, consisting of the chromatin (CHR) fraction. […]

nucleosomes = assay: Restriction enzyme accessibility assay (REAA) nucleosome remodeling assay; format: biochemical; conditions: 37 degrees C, 0-40 min
Procedure: SMARCA4 (BRG1) levels of the ammonium sulfate nuclear extracts were normalized via BCA protein quantification and Silver Stain analyses for HA-SS18 and HA-SS18-SSX conditions. Protein was diluted for final reaction concentration of 150 μg/mL in REAA buffer (20 mM HEPES, pH 8.0, 50 mM KCl, 5 mM MgCl2) containing 0.1 mg/mL BSA, 1 mM DTT, 20 nM nucleosomes (EpiDyne Nucleosome Remodeling Assay Substrate ST601-GATC1, EpiCypher). The REAA mixture was incubated at 37° C. for 10 min, and reaction was initiated using 1-2 mM ATP (Ultrapure ATP, Promega) and 0.005 U/mL DpnJJ Restriction Enzyme (New England Biolabs). The REAA reaction mixture was quenched with 20-24 mM EDTA and placed on ice. Proteinase K (Ambion) was added at 100 mg/mL for 30-60 min, followed by either AMPure bead DNA purification and D1000 HS DNA ScreenTape Analysis (Agilent) or mixing with GelPilot® Loading Dye (QIAGEN) and loading onto 8% TBE gel (Novex 8% TBE Gels, Thermo Fisher). TBE gels were stained with either SYBR®-Safe (Invitrogen) or Syto®-60 Red Fluorescent Nucleic Acid Stain (Invitrogen), followed by imaging with UV light on an Alpha Innotech AlphaImager™ 2200 and/or with 652 nm light excitation on a Li-Cor Odyssey® CLx imaging system (LI-COR).

[2] = system: recombinant mononucleosome; assay: ATPase assay (ADP-Glo); format: biochemical; conditions: 0-40 min
Procedure: ATPase consumption assays were performed using the ADP-Glo Kinase Assay kit (Promega). The same conditions as the REAA nucleosome remodeling assay described above were used. Following incubation with desired substrates for 40 min at 37° C., 1× volume of ADP-Glo Reagent was used to quench the reaction and incubated at RT for 40 min. 2× volume of the Kinase Detection Reagent was then added and incubated at RT for 1 h. Luminescence readout was recorded. Substrates used for this assay were purified recombinant mononucleosome (EpiDyne Nucleosome Remodeling Assay Substrate ST601-GATC1, EpiCypher, Cat #16-4101). Nuclear extract material was used at 150ug for each ARID1A-IP using ARID1A antibody (Cell Signaling, Cat #12354S).

[3] = system: H2A K119Ub-modified nucleosomes; assay: Pull down of endogenous HA-SS18- or HA-SS18-SSX-bound BAF complexes with WT or H2A K119Ub-modified nucleosomes; format: binding; conditions: endogenously purified complexes
Procedure: Difference is the score calculated between SYO1 (SS18-SSX+) cells and SW982 cells (negative for fusion, histologic mimic). mSWI/SNF, PRC1, PRC2 members are shown. […] H3 immunoblot is used for assessment of nucleosome binding to GST-SSX. […] SMARCA4 and H3 immunoblots are shown. FIG. 11G has two panels. […] Peptides were incubated −/+presence of USP2 treatment. Error bars=st.dev. […] H3 immunoblot is used for assessment of nucleosome binding to GST-SSX. […] Data for GST-SSX with WT nucleosomes and H2A K119Ub nucleosomes are shared between FIG. 11E.
SS cell lines containing the SS18-SSX fusion oncoprotein are highlighted in red. […] Difference is the score calculated between SYO1, Yamato-SS, SCS241 (SS18-SSX+) cells and SW982 cells (negative for fusion, histologic mimic). Blue indicates enriched for dependency. mSWI/SNF, PRC1, PRC2 members are shown. […] Synovial sarcoma cell lines are indicated in pink; all other cell lines are represented in gray. […] (Project DRIVE; available on the World Wide Web at oncologynibr.shinyapps.io/drive/). SS cell lines containing the SS18-SSX fusion oncoprotein are highlighted in red. […] H3 immunoblot is used for assessment of nucleosome binding to GST-SSX. […] SMARCA4 and H3 immunoblots are shown. […] Identified proteins labeled (Left). WB of the samples on the right indicating presence of histone H3 (Right).

[4] = system: unmodified or H2A K119Ub-modified nucleosomes; assay: Fluorescence polarization assay; format: binding; conditions: H2A K119Ub versus unmodified nucleosomes

| Substance | core histone proteins captured (histone proteins) | peptides corresponding to the H2A K119Ub mark captured [1] | remodeling efficiency (nucleosomes) | ATPase activity [2] | binding of H2A K119Ub-modified versus unmodified nucleosomes by BAF complexes [3] | binding affinity by fluorescence polarization [4] |
| --- | --- | --- | --- | --- | --- | --- |
| SS18-SSX-bound BAF complexes: BAF complexes purified via HA-tagged SS18-SSX expressed in HEK-293T cells | captured near-stoichiometric amounts of core histone proteins H2A, H2B, H3, and H4 | captured only in the purifications of SS18-SSX-bound complexes | slightly lower than that of WT SS18-bound complexes | slightly lower than that of WT SS18-bound complexes | enriched for binding of recombinant H2A K119Ub-modified nucleosomes over unmodified nucleosomes | – |
| fluoro-labeled SSX: fluorescently-labeled SSX1 (78aa), in place of GST tag | – | – | – | – | – | higher binding affinity to H2A K119Ub-decorated nucleosomes compared to unmodified nucleosomes |
